Reference: US20040006236A1, “Diaminopropionic acid derivatives” (priority 1999, published 2004)

Columns and labels:
[1] = test system: cell-surface Mac-1 adhesion to immobilized fibrinogen (HL-60 cells); test: Mac-1/Fibrinogen cell-based screening assay; parameters: species or system human; conditions: Homo sapiens, HL-60, HL-60 cells; read-out: Mac-1/Fgn Cell based Assay IC50
Procedure: Cellular Mac-1/Fibrinogen antagonist activity, defined as the ability to inhibit cell-surface Mac-1 adhesion to immobilized fibrinogen, was quantitated by a cell based assay. Human fibrinogen was coated onto 96 well microtiter plates (1 μg in 100 μL TBS) overnight at 4° C. The plates were then blocked with 150 μL of 10% polyvinyl pyrrolidone (PVP) in TBS for 1 h at 37° C. Plates were washed 3 times (150 μL each) with TBS. […] A ten-fold excess of volume of the same buffer was added and cells were centrifuged. The medium was decanted and cells were resuspended at a concentration of 2×10^6 cells/mL in RPMI/0.05% BSA/0.2 mM MnCl2. Stock solutions (10 mM in DMSO) of test compounds were diluted to 2.5 mM with DMSO. […] Each sample was further diluted 50-fold with RPMI/0.05% BSA/0.2 mM MnCl2. Equal volumes of labeled cells were then added to assay tubes containing diluted compounds. […] Cells were incubated for 10 min at 37° C. with gentle shaking, then dispensed (100 μL per well) onto fibrinogen coated plates and incubated for 30 min at 37° C./5% CO2. Unbound cells were gently washed with TBS two times.

[2] = molecular target: T1, LFA-1 binding to immobilized ICAM-1 (Homo sapiens, UniProt P05107+P20701); test: LFA-1/ICAM-1 protein-protein assay (solid-phase ELISA); conditions: read-out: LFA-1/ICAM-1 Protein-Protein Assay IC50
T1 construct: made in house; host or cells: transfected 293 cells (LFA-1)
T1 sequence (P20701 26-1170): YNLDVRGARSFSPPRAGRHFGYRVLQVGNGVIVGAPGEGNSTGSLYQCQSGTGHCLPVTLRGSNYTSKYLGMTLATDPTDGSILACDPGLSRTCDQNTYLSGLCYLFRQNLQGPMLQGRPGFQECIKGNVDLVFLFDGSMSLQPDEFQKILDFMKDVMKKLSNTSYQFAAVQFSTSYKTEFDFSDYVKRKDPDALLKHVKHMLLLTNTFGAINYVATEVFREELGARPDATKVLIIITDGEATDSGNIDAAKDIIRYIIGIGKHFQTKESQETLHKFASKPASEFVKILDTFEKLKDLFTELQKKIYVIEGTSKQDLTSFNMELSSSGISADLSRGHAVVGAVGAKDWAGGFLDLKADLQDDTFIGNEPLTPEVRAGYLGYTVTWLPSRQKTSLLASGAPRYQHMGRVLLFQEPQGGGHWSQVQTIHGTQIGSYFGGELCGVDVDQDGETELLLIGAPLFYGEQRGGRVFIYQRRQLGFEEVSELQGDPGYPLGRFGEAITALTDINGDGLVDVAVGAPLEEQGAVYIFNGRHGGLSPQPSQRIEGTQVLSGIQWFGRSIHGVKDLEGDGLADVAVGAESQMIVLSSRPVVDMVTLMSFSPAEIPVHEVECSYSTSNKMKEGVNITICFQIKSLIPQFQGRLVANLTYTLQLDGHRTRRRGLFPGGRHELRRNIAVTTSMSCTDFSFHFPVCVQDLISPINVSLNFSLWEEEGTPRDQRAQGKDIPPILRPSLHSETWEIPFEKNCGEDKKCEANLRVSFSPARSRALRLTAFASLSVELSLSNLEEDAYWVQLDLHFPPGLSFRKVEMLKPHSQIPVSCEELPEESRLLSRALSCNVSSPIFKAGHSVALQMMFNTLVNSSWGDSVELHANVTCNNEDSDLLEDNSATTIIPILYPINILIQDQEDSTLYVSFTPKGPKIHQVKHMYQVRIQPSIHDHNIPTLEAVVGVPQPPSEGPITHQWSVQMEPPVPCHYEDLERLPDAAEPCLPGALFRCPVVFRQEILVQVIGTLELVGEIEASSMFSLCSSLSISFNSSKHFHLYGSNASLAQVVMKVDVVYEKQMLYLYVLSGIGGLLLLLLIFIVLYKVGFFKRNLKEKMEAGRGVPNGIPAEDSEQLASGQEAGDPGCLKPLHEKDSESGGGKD
T1 sequence (P05107 23-769): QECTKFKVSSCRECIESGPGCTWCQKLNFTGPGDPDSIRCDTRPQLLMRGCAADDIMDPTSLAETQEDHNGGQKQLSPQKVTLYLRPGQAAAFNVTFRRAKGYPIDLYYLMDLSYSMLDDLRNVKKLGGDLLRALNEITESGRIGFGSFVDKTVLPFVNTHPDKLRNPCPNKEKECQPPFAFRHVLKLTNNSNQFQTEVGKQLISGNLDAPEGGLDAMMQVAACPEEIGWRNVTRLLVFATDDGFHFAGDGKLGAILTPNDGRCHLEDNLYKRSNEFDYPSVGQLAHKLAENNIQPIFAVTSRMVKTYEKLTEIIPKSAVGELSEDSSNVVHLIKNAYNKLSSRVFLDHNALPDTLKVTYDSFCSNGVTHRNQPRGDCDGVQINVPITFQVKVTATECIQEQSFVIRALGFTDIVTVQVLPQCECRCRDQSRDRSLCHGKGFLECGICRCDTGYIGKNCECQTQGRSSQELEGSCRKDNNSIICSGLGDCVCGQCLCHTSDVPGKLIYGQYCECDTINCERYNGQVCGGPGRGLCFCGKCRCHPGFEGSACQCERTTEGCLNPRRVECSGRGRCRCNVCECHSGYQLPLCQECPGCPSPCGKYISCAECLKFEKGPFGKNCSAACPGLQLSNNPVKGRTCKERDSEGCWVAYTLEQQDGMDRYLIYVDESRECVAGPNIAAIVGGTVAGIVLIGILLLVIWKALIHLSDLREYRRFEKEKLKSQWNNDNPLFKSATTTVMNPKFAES
Procedure: (a) LFA-1/ICAM-1 screening test: LFA-1/ICAM-1 antagonist activity, defined as the ability of compounds of the invention to block LFA-1 binding to immobilized ICAM-1, was quantitated using a solid-phase ELISA.
(§1) Typically, fusion protein consisting of the entire extracellular domain of human ICAM-1 and the Fc domain of human IgG (5dICAM-Ig) was coated onto 96-well microtiter plates (0.15 μg in 100 μL PBS) overnight at 4° C. The plates were then blocked with 150 μL of 1% BSA/1 mM MnCl2/0.14 M NaCl/20 mM HEPES, pH 7.2 for 1 h at 37° C. and washed 3 times (150 μL each) with Wash Buffer (50 mM Tris, pH 7.4/100 mM NaCl/1 mM MnCl2/0.05% Tween 20). Stock solutions (100 μM in 100% DMSO) of test compounds were diluted 50 fold with 150 μL of Binding Buffer (0.05% BSA/0.05% Tween 20/1 mM MnCl2/0.14 M NaCl/20 mM HEPES, pH 7.2) plus 10% DMSO. […] Fifty μL per well of each dilution was added to the ICAM-1 coated plates, followed by 50 μL per well of membrane-bound LFA-1 (280 ng/mL in Binding Buffer) derived from transfected 293 cells. The plates were shaken vigorously for 1 min (room temperature) and gently for 2 h (37° C.). After incubation, the plates were washed 3 times (150 μL each) with Wash Buffer. Mouse anti-human integrin β2 monoclonal antibody was added (100 μL/well, 1 μg/mL in Binding Buffer) and allowed to incubate for 1 h (37° C.) with gentle agitation. The plates were then washed 3 times with Wash Buffer. HRP-conjugated goat anti-mouse IgG (100 μL/well, 1:1500 dilution in Binding Buffer) was added to each well, followed by incubation for 1 h (37° C.), and concluded by three washes (150 μL each) with Wash Buffer. TMB solution (100 μL per well) was added for color development (10 min). The reaction was stopped by the addition of 100 μL of 1 M H3PO4 to each well. The plates were then read at 450 nm. The inhibitory activities of test compounds were determined by the IC50s.
as §1, with “LFA-1/ICAM-1 antagonist activity, defined as the ability to block LFA-1 binding to immobilized ICAM-1, was quantitated using a solid-phase ELISA. Typically,” for “Typically,”, “(0.05 %” for “(0.05%”, “nm.” for “nm. The inhibitory activities of test compounds were determined by the IC50s.”

[3] = molecular target: T2, ICAM-1 binding to immobilized Mac-1 (Homo sapiens, UniProt P05107+P11215); test: Mac-1/ICAM-1 screening assay (solid-phase ELISA); conditions: read-out: Mac-1/ICAM-1 Protein-Protein Assay IC50
T2 construct: made in house; host or cells: transfected 293 cells (Mac-1)
T2 sequence (P05107 23-769, other chains not shown): as the sequence (P05107 23-769) above
Procedure: (b) Mac-1/ICAM-1 screening test: Mac-1/ICAM-1 antagonist activity, defined as the ability to compete with ICAM-1 binding to immobilized Mac-1, was quantitated by a solid-phase ELISA.
(§2) Membrane-bound Mac-1 derived from transfected 293 cells was coated onto 96-well microtiter plates (50 μL/well, 3 μg/mL Mac-1 in 20 mM Hepes, pH 7.2/0.14 M NaCl/1 mM MnCl2) overnight at 4° C. The plates were blocked with 100 μL/well of 0.5% BSA in 20 mM Hepes, pH 7.2/0.14 M NaCl/1 mM MnCl2 at 37° C. for 1 h and washed 3 times (120 μL each) with Binding Buffer (20 mM Hepes, pH 7.2/0.14 M NaCl/1 mM MnCl2/0.05% Tween 20). Test compounds were dissolved in 100% DMSO and diluted 1:50 in Binding Buffer plus 10% DMSO. A series of 1:4 dilutions were performed for each compound (concentration range, 0.12 nM-20 μM). Each dilution (25 μL/well) was added to the plates, followed by 25 μL/well of 5 dICAM-Ig (40 μg/mL in Binding Buffer). The plates were shaken vigorously for 1 min (room temperature), followed by gentle agitation for 2 h (37° C.), and washed with Binding Buffer (3 times, 120 μL each). HRP-conjugated goat anti-human IgG(Fc-specific) antibody (0.125 μg/mL in Binding Buffer plus 0.05% BSA) was added to each well (50 μL/well), followed by incubation for 1 h at 37° C. The plates were then washed 3 times with Binding Buffer (120 μL each). TMB solution (100 μL/well) was added to each well for color development for 10 min. The reaction was stopped with 1 M H3PO4 (100 μL/well) and the plates were read at 450 nm. The inhibitory activities of test compounds were determined by the IC50s.
as §2, with “Mac-1/ICAM-1 antagonist activity, defined as the ability to compete with ICAM-1 binding to immobilized Mac-1, was quantitated by a solid-phase ELISA. Membrane-bound” for “Membrane-bound”, “5dICAM-Ig” for “5 dICAM-Ig”, “nm.” for “nm. The inhibitory activities of test compounds were determined by the IC50s.”

| SMILES | IC50 [1] [nM] | IC50 [2] [nM] | IC50 [3] [nM] |
| --- | --- | --- | --- |
| O=C(NCc1cccc(O)c1)c1ccc(C(=O)N[C@@H](CNC(=O)c2cc([N+](=O)[O-])[nH]n2)C(=O)O)c(Cl)c1 [Example 152] | 1220 | – | – |
| O=C(NCc1cccc(O)c1)c1ccc(C(=O)N[C@@H](CNC(=O)c2cc(=O)[nH]c(=O)[nH]2)C(=O)O)c(Cl)c1 [Example 173] | – | 0.6 | 36 |
| O=C(NCc1cccc(O)c1)c1ccc(C(=O)N[C@@H](CNC(=O)c2nccc3ccccc23)C(=O)O)c(Cl)c1 [Example 180] | – | 0.6 | 48 |
| O=C(NCc1cccc(O)c1)c1ccc(C(=O)N[C@@H](CNC(=O)c2nc3ccccc3nc2O)C(=O)O)c(Cl)c1 [Example 186] | – | 1.6 | 167 |
| O=C(NCc1cccc(O)c1)c1ccc(C(=O)N[C@@H](CNC(=O)c2cc3ccccc3oc2=O)C(=O)O)c(Cl)c1 [Example 188] | – | 3.4 | 146 |
| O=C(NCc1cccc(O)c1)c1ccc(C(=O)N[C@@H](CNC(=O)c2c3ccccc3cc3ccccc23)C(=O)O)c(Cl)c1 [Example 189] | – | 18 | 1050 |
| COc1ccc2nc3ccc(C(=O)NC[C@H](NC(=O)c4ccc(C(=O)NCc5cccc(O)c5)cc4Cl)C(=O)O)cn3c(=O)c2c1 [Example 191] | – | 2.2 | 130 |
| O=C(NC[C@H](NC(=O)c1c(F)cccc1Cl)C(=O)O)c1ccccc1 [Example 220] | – | 14 | 304 |
| O=C(COc1ccccc1)c1ccc(C(=O)N[C@@H](CNC(=O)c2cccs2)C(=O)O)c(Cl)c1 [Example 376, N-[2-chloro-4-(phenoxyacetyl)benzoyl]-3-(thiophene-2-carbonyl)amino-L-alanine] | – | 37 | 152 |

More lines, now with the values ahead:

| IC50 [1] [nM] | IC50 [2] [nM] | IC50 [3] [nM] | SMILES |
| --- | --- | --- | --- |
| – | 3.4 | 91 | O=C(NCc1cccc(O)c1)c1ccc(C(=O)N[C@@H](CNC(=O)c2cc3ccccc3o2)C(=O)O)c(Cl)c1 [Example 174] |
| – | 1.2 | 54 | O=C(NCc1cccc(O)c1)c1ccc(C(=O)N[C@@H](CNC(=O)c2ccc3[nH]cnc3c2)C(=O)O)c(Cl)c1 [Example 176] |
| – | 12 | 176 | O=C(NCc1cccc(O)c1)c1ccc(C(=O)N[C@@H](CNC(=O)c2ccc3ccccc3n2)C(=O)O)c(Cl)c1 [Example 181] |
| – | 2.5 | 91 | O=C(NCc1cccc(O)c1)c1ccc(C(=O)N[C@@H](CNC(=O)c2ccnc3ccccc23)C(=O)O)c(Cl)c1 [Example 184] |
| – | 1.3 | 187 | O=C(NCc1cccc(O)c1)c1ccc(C(=O)N[C@@H](CNC(=O)c2cnnc3ccccc23)C(=O)O)c(Cl)c1 [Example 185] |
